pKd: −log10 of the molar value.
How the values were obtained:
TrkB = target: T1, TrkB (Homo sapiens, UniProt Q16620); experiment: TrkB phosphorylation in transfected HEK293 cells (Western blot); format: cell-based; conditions: 5 μM
T1 construct: expressed in transfected cells; host or cells: HEK293

IR-EGFR = target: T2, IR-EGFR (Homo sapiens, UniProt P00533+P06213); experiment: His-tagged chimaeric receptor phosphorylation in CHO cells; format: cell-based; conditions: 5 μM, 30 min
T2 construct: the cDNA encoding extracellular IR was fused to intracellular IGFR or EGFR; expressed in transfected cells; host or cells: CHO
Procedure: (A) Chemical structure of 4524-E7. (B) Effect of 4524-E7 and other 1,4-naphthoquinone derivatives on IR phosphorylation in CHO-IR cells. CHO-IR cells were cultured in 96-well plates and treated with 5 μM compounds for 15 min at 37 C. Cells were lysed, and IR phosphorylations were tested by ELISA. The IR phosphorylation activities of the tested compounds were expressed as a percentage of the vehicle. (C) 4524-E7 and 1,4-naphthoquinone derivates activate IR and its downstream signaling in CHO-IR cells. […] The cell lysates were analyzed by immunoblotting with various indicated antibodies. The phosphorylated IR was immunoprecipitated using PY20 and analyzed by immunoblotting with anti-IR13 antibody. […] The phosphorylation of each receptor was determined by Western blot using specific antibodies as indicated. (E) 4524-E7 activates IR through its ICD. Upper panel: Diagram of chimaeric receptors. Lower panel: His-tagged wild-type IR, IGFR-IR, IR-IGFR, and IR-EGFR constructs were transfected into CHO cells followed vehicle or 5 μM 4524-E7 treatment for 30 min. Then the cells were lysated and the transfected receptor fused to His tag were pulled down with Ni+ beads, followed by western blot against anti-p-Tyr and anti-His. The cell lysates were tested with anti-p-Akt and anti-Akt.
The cDNA encoding wild type IR was introduced into the pcDNA3.1/V5-His-TOPO vector. […]

MCF7 cells = experiment: Proliferation of MCF7 cells; format: cell-based
IR = IR (Homo sapiens, UniProt P06213); experiment: IR phosphorylation in transfected HEK293 cells (Western blot); format: cell-based; set-up: expressed in transfected cells; host or cells: HEK293; conditions: 4524-E7 5 μM, insulin 100 nM
Procedure: Cells were lysed, and IR phosphorylations were tested by ELISA. The IR phosphorylation activities of the tested compounds were expressed as a percentage of the vehicle. […] The cell lysates were analyzed by immunoblotting with various indicated antibodies. The phosphorylated IR was immunoprecipitated using PY20 and analyzed by immunoblotting with anti-IR13 antibody. […] The phosphorylation of each receptor was determined by Western blot using specific antibodies as indicated. […] Then the cells were lysated and the transfected receptor fused to His tag were pulled down with Ni+ beads, followed by western blot against anti-p-Tyr and anti-His. The cell lysates were tested with anti-p-Akt and anti-Akt.
Whether 4524-E7 can activate other receptors of RTK family was tested. […] To further explore the specificity, several hybrid recombinant RTKs were generated by replacing IGFR and EGFR's extracellular domain (ECD) with IR's ECD. Moreover, IGFR's intracellular domain (ICD) was substituted with IR's ICD, and the His-tagged receptors were transfected into CHO cells and treated with 4524-E7 for 30 min.

GST-IRTK = target: T3, GST-IRTK (Homo sapiens, UniProt P06213); experiment: UV-absorption spectra titration; format: binding
T3 construct: GST-tagged IRTK (GST-IRTK, a.a. 1011-1382); purchased Invitrogen
Procedure: UV-Vis absorption for protein binding was obtained using the Cary 300 UV-Visible spectrophotometer (Varian Inc., Palo Alto, Calif.) equipped with 1.0 cm quartz cells. The spectra were scanned from 200 to 800 nm in Tris buffer (0.01M Tris, 0.05M NaCl, 10 mM MgCl2, pH 7.8). During the spectrophotometric titrations, protein (GST or GST-IRTK) was added to a cell containing a constant amount of compound. The absorbances at 602 nm were recorded (data were read for three times and mean value was obtain by averaging) and the obtained data were processed with KaleidaGraph (Synergy Software). Repeated measurements were done for all the samples and no significant differences were observed (The reproducibility errors is less than 5%). Binding results from the UV titration experiments were fit with a one site interaction model: r=K*Cfree/(1+K*Cfree) Where r represents the moles of bound compound per mole of protein, K is macroscopic binding constants, and Cfree is the free compound concentration in equilibrium with the complex. Insulin Competition Assay
Several small molecules bind to the intracellular kinase domain of IR (IRTK) and provoke its activation. DDN might also interact with the IRTK to activate IR. To test this possibility, an UV-absorption spectra analysis was performed using recombinant IRTK. […]

ob/ob mice = experiment: Plasma insulin in ob/ob mice; format: in vivo, mouse; conditions: single oral doses
Procedure: After a 12 h fasting, ob/ob mice were bled from the tail vein for a baseline (time −60 minutes) measurement. Then animals were orally administered 5 mg/kg compound in 0.5% methylcellulose. One hour after the drug administration, glucose (2 g/kg) was administrated intraperitoneally. Blood glucose levels were measured 0, 30, 60, 90, 120, and 180 min after administration of glucose. The blood was collected in tubes, kept at 4° C. overnight, and plasma was prepared by centrifugation (2,000 g, 20 min). Plasma insulin was measured by enzyme-linked immunosorbent assay with a rat insulin kit (Crystal Chem. Inc., USA). Insulin was quantified using the insulin standard curve.

T3 sequence (P06213 1011-1382): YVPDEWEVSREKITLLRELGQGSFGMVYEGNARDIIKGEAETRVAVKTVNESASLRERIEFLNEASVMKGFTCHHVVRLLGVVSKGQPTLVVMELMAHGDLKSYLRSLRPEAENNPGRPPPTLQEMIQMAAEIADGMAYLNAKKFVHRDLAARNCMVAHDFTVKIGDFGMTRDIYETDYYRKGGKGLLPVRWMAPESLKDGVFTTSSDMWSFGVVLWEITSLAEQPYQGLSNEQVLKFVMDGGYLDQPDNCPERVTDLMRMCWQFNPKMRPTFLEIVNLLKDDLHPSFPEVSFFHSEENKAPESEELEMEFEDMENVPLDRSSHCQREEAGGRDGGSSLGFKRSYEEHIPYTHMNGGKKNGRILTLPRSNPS
T2 sequence (P00533 669-1210 limits assumed, one chain of several): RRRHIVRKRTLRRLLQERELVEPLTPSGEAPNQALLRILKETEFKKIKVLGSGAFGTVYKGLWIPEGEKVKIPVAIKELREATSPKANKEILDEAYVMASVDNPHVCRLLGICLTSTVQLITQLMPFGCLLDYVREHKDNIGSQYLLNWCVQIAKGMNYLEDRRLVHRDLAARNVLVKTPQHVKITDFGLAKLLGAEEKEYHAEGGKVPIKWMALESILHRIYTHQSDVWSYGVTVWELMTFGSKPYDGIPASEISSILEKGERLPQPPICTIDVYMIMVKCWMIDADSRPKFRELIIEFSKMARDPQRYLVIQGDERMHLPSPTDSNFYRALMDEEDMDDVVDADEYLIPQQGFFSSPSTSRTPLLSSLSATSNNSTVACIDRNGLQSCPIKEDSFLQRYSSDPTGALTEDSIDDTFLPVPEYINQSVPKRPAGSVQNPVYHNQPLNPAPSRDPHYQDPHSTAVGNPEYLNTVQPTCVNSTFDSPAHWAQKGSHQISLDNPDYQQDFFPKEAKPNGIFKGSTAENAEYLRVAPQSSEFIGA
T1 sequence (Q16620 32-822, species assumed): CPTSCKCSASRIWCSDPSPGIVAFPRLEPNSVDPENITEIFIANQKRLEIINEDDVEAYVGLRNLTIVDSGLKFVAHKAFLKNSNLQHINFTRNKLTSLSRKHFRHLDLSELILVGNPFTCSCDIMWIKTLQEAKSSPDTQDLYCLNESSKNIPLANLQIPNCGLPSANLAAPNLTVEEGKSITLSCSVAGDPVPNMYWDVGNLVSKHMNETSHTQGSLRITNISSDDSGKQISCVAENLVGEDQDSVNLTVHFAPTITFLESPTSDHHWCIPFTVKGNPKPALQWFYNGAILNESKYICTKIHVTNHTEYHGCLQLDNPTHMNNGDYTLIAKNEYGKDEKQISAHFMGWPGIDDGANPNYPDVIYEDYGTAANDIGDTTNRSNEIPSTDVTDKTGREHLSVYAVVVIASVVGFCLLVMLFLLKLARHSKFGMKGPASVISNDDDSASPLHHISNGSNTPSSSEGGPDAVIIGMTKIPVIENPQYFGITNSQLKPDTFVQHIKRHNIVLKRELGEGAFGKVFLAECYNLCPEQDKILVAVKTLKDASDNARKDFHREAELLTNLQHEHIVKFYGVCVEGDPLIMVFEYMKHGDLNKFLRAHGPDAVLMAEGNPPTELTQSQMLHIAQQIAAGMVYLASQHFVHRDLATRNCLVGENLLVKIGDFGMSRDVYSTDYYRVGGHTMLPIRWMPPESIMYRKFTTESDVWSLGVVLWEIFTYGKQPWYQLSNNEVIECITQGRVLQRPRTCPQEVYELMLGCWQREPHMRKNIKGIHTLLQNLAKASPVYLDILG
Sequence of IR (P06213 28-1382): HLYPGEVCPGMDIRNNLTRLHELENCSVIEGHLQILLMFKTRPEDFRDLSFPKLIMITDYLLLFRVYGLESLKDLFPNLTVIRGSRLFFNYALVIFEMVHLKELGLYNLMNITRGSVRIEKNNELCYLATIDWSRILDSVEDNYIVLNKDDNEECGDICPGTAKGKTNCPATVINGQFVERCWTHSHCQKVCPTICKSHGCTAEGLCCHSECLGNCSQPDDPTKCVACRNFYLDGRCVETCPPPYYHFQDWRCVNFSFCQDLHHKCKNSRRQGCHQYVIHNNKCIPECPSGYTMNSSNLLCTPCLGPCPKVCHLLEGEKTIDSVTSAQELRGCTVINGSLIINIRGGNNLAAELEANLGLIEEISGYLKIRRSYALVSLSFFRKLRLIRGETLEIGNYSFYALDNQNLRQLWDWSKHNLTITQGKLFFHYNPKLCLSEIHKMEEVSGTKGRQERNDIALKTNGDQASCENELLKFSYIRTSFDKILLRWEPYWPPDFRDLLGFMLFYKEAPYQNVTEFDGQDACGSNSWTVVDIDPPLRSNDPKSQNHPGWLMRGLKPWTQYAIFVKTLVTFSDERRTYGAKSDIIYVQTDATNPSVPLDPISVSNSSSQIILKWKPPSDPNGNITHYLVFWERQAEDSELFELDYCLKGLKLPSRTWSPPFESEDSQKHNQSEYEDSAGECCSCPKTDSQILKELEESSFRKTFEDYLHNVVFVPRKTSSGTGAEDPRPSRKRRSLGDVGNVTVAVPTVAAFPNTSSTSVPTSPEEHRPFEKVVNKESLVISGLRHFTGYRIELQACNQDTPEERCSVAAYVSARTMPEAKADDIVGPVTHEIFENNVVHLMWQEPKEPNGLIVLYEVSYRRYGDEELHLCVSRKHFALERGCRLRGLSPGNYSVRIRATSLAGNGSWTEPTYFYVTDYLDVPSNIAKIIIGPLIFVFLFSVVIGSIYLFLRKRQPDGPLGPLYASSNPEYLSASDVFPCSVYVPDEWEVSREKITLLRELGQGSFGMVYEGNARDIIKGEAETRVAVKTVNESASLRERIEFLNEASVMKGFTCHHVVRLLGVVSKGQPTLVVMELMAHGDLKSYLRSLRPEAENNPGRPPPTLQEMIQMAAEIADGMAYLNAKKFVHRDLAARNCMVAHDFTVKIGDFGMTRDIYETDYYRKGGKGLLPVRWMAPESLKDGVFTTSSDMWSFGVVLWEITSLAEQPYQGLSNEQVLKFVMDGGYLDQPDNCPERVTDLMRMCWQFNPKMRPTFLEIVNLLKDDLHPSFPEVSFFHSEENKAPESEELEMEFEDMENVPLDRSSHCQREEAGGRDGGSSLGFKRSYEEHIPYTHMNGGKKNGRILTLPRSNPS

O=C1c2ccccc2C(=O)C2SC(Nc3ccc(Cl)cc3)=NC12 (stereo not shown) [4524-E7, 2-((4-chlorophenyl)amino)naphtho[2,3-d]thiazole-4,9(3aH,9aH)-dione] was tested, and the TrkB activation (TrkB) was “not any other RTKs”, the “tyrosine phosphorylation of chimaeric receptor” value (IR-EGFR) was “not phosphorylated” and the “proliferation of MCF7 cells” value (MCF7 cells) was “not able to induce the proliferation of MCF7 cells”. The IR activation (IR) was “selectively activated”.

With CC(=O)Oc1ccc(OC(C)=O)c2c1C(=O)C(Cl)=C(Cl)C2=O [DDN, 5,8-diacetyloxy-2,3-dichloro-1,4-naphthoquinone] the pKd (GST-IRTK; UV titration, absorbance at 602 nm, read-out: binding constant Kd) was about 5.49, the “peak absorption at 560 and 602 nm in presence of GST-IRTK” value (GST-IRTK; spectra 200 to 800 nm) was “enhanced the peak absorption at 560 and 602 nm” and the plasma insulin levels (ob/ob mice) was “no significant effect on plasma insulin levels”.

Source: US9040713B2, “Methods of managing blood sugar levels and compositions related thereto” (EMORY UNIVERSITY, priority 2010, dated 2015)
